PMC5507300, “Antibacterial small molecules targeting the conserved TOPRIM domain of DNA gyrase” (PLoS ONE, 2017)
Values after ≈ are worked out from the molar mass of the structure shown. Where two headings read alike, the source gives them in different places.

Legend:
Type in all cases: cell-based
[1] = tested on: E. coli GYR106 GyrB F513L/A468V; assay: microbe, parasite or virus in culture; details: Escherichia coli
Source text: (§1) E. coli HS151 (ΔtolC) has been described previously. […] E. coli BW25113 and the Keio gene deletion collection based on BW25113 [25] were obtained from Thermo Fisher Scientific (Waltham, MA) and described in [26]. The plasmid-borne FQ resistance determinant, qnrVC3 [27], was kindly provided by D. Hooper (Massachusetts General Hospital). […] MB2884 (E. coli) and CL15245 (K. pneumoniae) are clinical isolates from the Merck & Co., Inc., Kenilworth, NJ, USA, strain collection. S. aureus COL is a methicillin-resistant clinical isolate.
(§2) Compound doubling dilutions were prepared in 100% DMSO (Sigma Aldrich) and 2 μL of each dilution was transferred to a 96-well plate with lid (Thermo Scientific). Inoculum for all MIC testing was prepared using the BBL Prompt Inoculation System (Becton Dickinson, Franklin Lakes, NJ USA) as described by the manufacturer to produce a suspension of cells at approximately 1.5 x 10^8 colony forming units (CFU)/mL [34–36] and a further dilution (1:1000) was made into cation adjusted Mueller-Hinton broth (CAMH broth, Becton-Dickinson). One hundred μL of this inoculum were then transferred to each well of the 96-well plate containing diluted compound (above). Plates were covered and incubated overnight (18 hrs.) at 37°C.
(§3) After the agar solidified, 5 μL of a saturated bacterial culture, grown in CAMH broth, were dispensed on the agar surface and allowed to dry at room temperature. […] After the surface dried at room temperature the plate was incubated at 37°C overnight. […] Genomic DNA from the parent strain (E. coli HS151) and purified (restreaked) resistant isolates was obtained with a GeneJET genomic DNA purification kit according to the manufacturer’s instructions (Fisher Scientific). Assembled whole genome mutant sequences were then compared to the parent strain and polymorphisms were identified as described.

[2] = tested on: E. coli GYR104 GyrB L470I; assay: microbe, parasite or virus in culture; details: Escherichia coli
Source text: as §1, §2, §3

[3] = tested on: E. coli GYR102 GyrB E466EV; assay: microbe, parasite or virus in culture; details: Escherichia coli
Source text: as §1, §2, §3

[4] = tested on: E. coli GYR101 GyrB F513L; assay: microbe, parasite or virus in culture; details: Escherichia coli
Source text: as §1, §2, §3

[5] = tested on: E. coli GYR107 GyrB F513L/L422V; assay: microbe, parasite or virus in culture; details: Escherichia coli
Source text: as §1, §2, §3

[6] = tested on: E. coli GYR105 GyrB T469K; assay: microbe, parasite or virus in culture; details: Escherichia coli
Source text: as §1, §2, §3

[7] = tested on: E. coli GYR108 GyrB L470I/V467L; assay: microbe, parasite or virus in culture; details: Escherichia coli
Source text: as §1, §2, §3

[8] = tested on: K. pneumoniae CL15245 (clinical isolate); assay: Broth microdilution MIC, K. pneumoniae CL15245; details: Klebsiella pneumoniae
Source text: as §1, §2

[9] = tested on: E. coli GYR103 GyrB L446Q; assay: microbe, parasite or virus in culture; details: Escherichia coli
Source text: (§4) E. coli HS151 (ΔtolC) has been described previously. Gyrase inhibitor-resistant isolates (GYR101-108) were derived by selection for spontaneous resistance to MRL-770 or MRL-423 (Fig 1) in E. coli HS151 as described below. E. coli BW25113 and the Keio gene deletion collection based on BW25113 [25] were obtained from Thermo Fisher Scientific (Waltham, MA) and described in [26]. The plasmid-borne FQ resistance determinant, qnrVC3 [27], was kindly provided by D. Hooper (Massachusetts General Hospital). MB9796 (A. baumannii) is a derivative of MB9797 (ATCC19606) lacking lipopolysaccharide. The efflux-defective P. aeruginosa strain MB5890 (CB398) is a derivative of MB5919 (PAO1). MB2884 (E. coli) and CL15245 (K. pneumoniae) are clinical isolates from the Merck & Co., Inc., Kenilworth, NJ, USA, strain collection. S. aureus COL is a methicillin-resistant clinical isolate.
as §2
After the agar solidified, 5 μL of a saturated bacterial culture, grown in CAMH broth, were dispensed on the agar surface and allowed to dry at room temperature. […] To select for resistance, a 100 mm petri dish was filled with 25 mL CAMH agar containing 8 μg/mL MRL-770 or 0.5 μg/mL MRL-423 (Fig 1). The cells in 1 mL of an overnight culture of E. coli HS151 (~10^9 CFU/mL) were concentrated by centrifugation and spread onto the surface of an MRL-770 or MRL-423 containing plate. After the surface dried at room temperature the plate was incubated at 37°C overnight. Any colonies that arose were counted and an approximate frequency of resistance was calculated after confirming resistance by restreaking on media containg compound as well as measuring MICs (see Results). Genomic DNA from the parent strain (E. coli HS151) and purified (restreaked) resistant isolates was obtained with a GeneJET genomic DNA purification kit according to the manufacturer’s instructions (Fisher Scientific). Assembled whole genome mutant sequences were then compared to the parent strain and polymorphisms were identified as described.

E. coli CIP101 GyrA D87N = assay: microbe, parasite or virus in culture; details: Escherichia coli
Experimental: as §2

[10] = tested on: P. aeruginosa MB5919 (PAO1); assay: Broth microdilution MIC, P. aeruginosa MB5919; details: Pseudomonas aeruginosa
Source text: as §1, §2

E. coli HS151 (ΔtolC) = assay: microbe, parasite or virus in culture; details: Escherichia coli
Source text: as §1, §2

[11] = tested on: P. aeruginosa(effluxΔ) MB5890; assay: microbe, parasite or virus in culture; details: Pseudomonas aeruginosa
Source text: as §1, §2

S. aureus (MRSA) COL = assay: Broth microdilution MIC, S. aureus COL; details: Staphylococcus aureus
Source text: as §4, §2

[12] = tested on: A. baumanii MB9797 (ATCC19606); assay: Broth microdilution MIC, A. baumannii MB9797; details: Acinetobacter baumannii
Source text: as §4, §2

[13] = tested on: A. baumannii ΔlpxC MB9796; assay: Broth microdilution MIC, A. baumannii MB9796; details: Acinetobacter baumannii
Source text: as §4, §2

[14] = tested on: E. coli MB2884 (clinical isolate); assay: Broth microdilution MIC, E. coli MB2884; details: Escherichia coli
Source text: as §1, §2

[15] = Table 1, CL15245 K. pneumoniae, read-out: MIC
[16] = Table 1, MB5919 P. aeruginosa, read-out: MIC
[17] = Table 1, MB9797 A. baumanii, read-out: MIC

Structure (SMILES) | MIC [1] [µg/mL] | MIC [2] [µg/mL] | MIC [3] [µg/mL] | MIC [4] [µg/mL] | MIC [8, 15] [µg/mL] | MIC [9] [µg/mL] | MIC (E. coli CIP101 GyrA D87N) [µg/mL] | MIC [10, 16] [µg/mL] | MIC [11] [µg/mL] | MIC [12, 17] [µg/mL] | MIC [13] [µg/mL] | MIC (S. aureus (MRSA) COL; MRSA) [µg/mL] | also measured
CN(C)[C@@H]1C(O)=C(C(N)=O)C(=O)[C@@]2(O)C(O)=C3C(=O)c4c(O)cccc4[C@@](C)(O)[C@H]3C[C@@H]12 [tetracycline] | 0.5 (≈ 1.13 µM) | 0.5 (≈ 1.13 µM) | 0.5 (≈ 1.13 µM) | 0.5 (≈ 1.13 µM) | 2 (≈ 4.5 µM) | 0.5 (≈ 1.13 µM) | 0.5 (≈ 1.13 µM) | 32 (≈ 72 µM) | 0.25 (≈ 0.563 µM) | 2 (≈ 4.5 µM) | 0.25 (≈ 0.563 µM) | – | MIC [5]: 0.5 µg/mL (≈ 1.13 µM); MIC [6]: 0.5 µg/mL (≈ 1.13 µM); MIC [7]: 0.5 µg/mL (≈ 1.13 µM); MIC (E. coli HS151 (ΔtolC); Table 1, HS151 E. coli ΔtolC): 0.5 µg/mL (≈ 1.13 µM); MIC (E. coli HS151 (ΔtolC); Table 2, HS151, GyrB mutation none): 0.5 µg/mL (≈ 1.13 µM); MIC (S. aureus (MRSA) COL; Table 1, COL S. aureus (MRSA), read-out: MIC): > 64 µg/mL
C[C@H]1COc2c(N3CCN(C)CC3)c(F)cc3c(=O)c(C(=O)O)cn1c23 [levofloxacin] | 0.0078 (≈ 0.0216 µM) | 0.0078 (≈ 0.0216 µM) | 0.0312 (≈ 0.0865 µM) | 0.0078 (≈ 0.0216 µM) | – | 0.0078 (≈ 0.0216 µM) | 0.0625 (≈ 0.173 µM) | – | – | – | 0.0156 (≈ 0.0432 µM) | > 0.125 | MIC [14]: 0.0156 µg/mL (≈ 0.0432 µM); MIC [8]: 0.0156 µg/mL (≈ 0.0432 µM); MIC [10]: > 0.125 µg/mL; MIC (E. coli HS151 (ΔtolC); 18 h, Table 1, HS151 E. coli ΔtolC): 0.00195 µg/mL (≈ 0.0054 µM); MIC [12]: 0.125 µg/mL (≈ 0.346 µM)
CO[C@H]1/C=C/O[C@@]2(C)Oc3c(C)c(O)c4c(O)c(c(/C=N/N5CCN(C)CC5)c(O)c4c3C2=O)NC(=O)/C(C)=C\C=C\[C@H](C)[C@H](O)[C@@H](C)[C@@H](O)[C@@H](C)[C@H](OC(C)=O)[C@@H]1C [rifampicin] | – | – | – | – | 32 (≈ 38.9 µM) | – | 8 (≈ 9.72 µM) | 32 (≈ 38.9 µM) | 32 (≈ 38.9 µM) | 2 (≈ 2.43 µM) | < 0.0625 | < 0.0625 | MIC ([14]; Table 1, MB2884 E. coli, read-out: MIC): 8 µg/mL (≈ 9.72 µM)
